Assays:
S1PR2 = biological target: T1, S1PR2 (Homo sapiens, UniProt O95136); assay: S1PR2 binding assay (competition with radioactively labeled S1P, SpA); settings: membranes from stable cell line over expressing S1PR2, SpA beads; read-out: S1P2 EC50 (nM), S1PR2 binding EC50
T1 construct: expressed in transfected cells
Description: The following assay can be used for determination of S1PR2 binding. The binding assay measures the potential to compete with radioactively labeled S1P for binding to the receptor.
The assay is performed in a96 well plate where the following reagents are added. First 50 μL compound is added into the assay plate, followed by addition of 100 μL ofa mixture consisting of membrane and Scintillation proximity Assay (SpA) beads [mixture consists […] membranes derived from stable cell line over expressing SPR2, 0.5 mg/well Polyvinyltoluene-Wheat Germ-Agglutinin (PVT-WGA) beads (Perkin Elmer, RPNQOO1)]. All components are diluted in assay buffer containing 20 mM Tris pH 7.5; 10 mM MgCl2; 100 mM NaCl; 0.4% BSA FAF; 1 mM Na3VO4) and incubated for 15 min until addition to the assay plate. Subsequently, 50 ul of radioactively labeled S1P is added to the wells (Sphingosine, D-erythro-[3-3H] 1-phosphate; ARC; ART0778). After an incubation for 2 h at room temperature, plates are centrifuged at 2000 rpm during 20 min. Plates are read on a Topcount reader (Perkin Elmer) immediately after centrifugation (readout time, 1 min/well).

[1] = biological target: T2, human GPCR sphingosine 1-phosphate receptor 2 (Homo sapiens, UniProt O95136); assay: S1PR2 antagonist Ca2+ flux assay; assay type: cell-based; settings: antagonist mode, CHO-S1PR2 cells, S1P at EC80, Ca2+ fluorescence; read-out: S1P2 EC50 (nM), S1P2 antagonist EC50
T2 construct: host or cells: CHO
T2 sequence (O95136 whole entry): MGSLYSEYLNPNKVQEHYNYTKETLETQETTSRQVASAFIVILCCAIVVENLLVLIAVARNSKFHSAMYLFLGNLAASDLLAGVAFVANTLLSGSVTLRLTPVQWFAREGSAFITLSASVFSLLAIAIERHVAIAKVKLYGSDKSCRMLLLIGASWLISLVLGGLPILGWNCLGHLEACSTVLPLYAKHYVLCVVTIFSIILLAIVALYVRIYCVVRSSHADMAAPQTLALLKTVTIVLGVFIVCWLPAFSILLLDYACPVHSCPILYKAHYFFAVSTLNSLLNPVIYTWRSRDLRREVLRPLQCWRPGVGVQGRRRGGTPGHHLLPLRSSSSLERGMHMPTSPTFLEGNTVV
Description: Triggering of S1PR2 by administration of Sphingosine-1-phosphate leads to a transient increase in intracellular Ca^2+. The Ca^2+ flux assays are measuring the release of Ca^2+ intracellularly by use of a Ca^2+ sensitive fluorescent dye. The assay is firstly run in agonist mode (incubation of compounds alone) to ensure that the Ca^2+ released measured is not caused by the test compound having an agonistic effect. Then the assay is continued in antagonist mode (Sphingosine-1-Phosphate added to incubated medium containing the test compounds).
CHO cells stably overexpressing human GPCR sphingosine 1-phosphate receptor 2 (CHO-S1PR2 Perkin Elmer; ES-594-A) are seeded from a frozen stock in 384 wells sterile microplates (50 μL; 7,500 cells/well) and are incubated overnight at 37° C. and 5% CO2. The next day cells are washed twice with starvation medium (F-12 Ham's medium containing 0.1% BSA (Fatty acid free: FAF)) and left in 25 μL starvation medium for 1 h at 37° C., 5% CO2. After this starvation cells are incubated with 25 μL buffer containing the Ca^2+-sensitive fluorescent dye (0.5 mg Fluo8+125 mg Allura Red in 100 mL of 1% DMSO, in HBSS+20 mM Hepes+5 mM probenecid). The cells are incubated for an additional 1 h after which 10 μL compounds, diluted in HBSS buffer with 20 mM Hepes and 0.1% BSA (FAF), are added to the cells and intracellular Ca2+ changes are immediately measured by reading fluorescence during 3 min (FDSS/pCELL reader). The ratio of the maximal fluorescence over the background fluorescence before compound injection is used to determine compound response.
After readout of the agonist activity, the plates are incubated for 15 min at 37° C. and 5% CO2. Then, cells are stimulated with 10 μL Sphingosine-1-Phosphate (S1P) (Avanti Polar lipids-860492P) at its EC80 concentration. Intracellular Ca2+ changes are immediately measured by reading fluorescence during 3 min (FDSS/pCELL reader). The ratio of the maximal fluorescence over the background fluorescence before compound injection is used to determine compound response.
The obtained ratio's for agonist and antagonist readout were normalized versus vehicle and EC 100 of S1P ascontrols for agonist mode and versus vehicle and […]. From these normalized data EC50 of the compounds are derived.

T1 sequence (O95136 whole entry): as above

An EC50 (S1PR2) of 8450 nM was found for `O=c1c2ccccc2c(Cc2nc3cc(Cl)c(OC(F)(F)F)cc3[nH]2)nn1C1CCCC1` [Compound 24, 4-[[5-chloro-6-(trifluoromethoxy)-1H-benzimidazol-2-yl]methyl]-2-cyclopentyl-phthalazin-1-one] in this work.
An EC50 [1] of 889 nM was found for `O=c1c2ccccc2c(Cc2nc3cc(Cl)c(OC(F)(F)F)cc3[nH]2)nn1C1CCC1` [Compound 26, 4-[[5-chloro-6-(trifluoromethoxy)-1H-benzimidazol-2-yl]methyl]-2-cyclobutyl-phthalazin-1-one] in this work.
An EC50 (S1PR2) of 33300 nM and an EC50 [1] of 1490 nM were found for `O=c1c2ccccc2c(Cc2nc3cc(Cl)c(OC(F)(F)F)cc3[nH]2)nn1CC1CCC1` [Compound 28, 4-[[6-chloro-5-(trifluoromethoxy)-1H-benzimidazol-2-yl]methyl]-2-(cyclobutylmethyl)phthalazin-1-one] in this work.
An EC50 (S1PR2) of 5190 nM and an EC50 [1] of 4340 nM were found for `O=c1c2ccccc2c(Cc2nc3cc(Cl)c(OC(F)(F)F)cc3[nH]2)nn1CC1CCCO1` (centres unmarked) [Compound 34, 4-[[6-chloro-5-(trifluoromethoxy)-1H-benzimidazol-2-yl]methyl]-2-(THF-2-ylmethyl)phthalazin-1-one] in this work.
An EC50 (S1PR2) of 5410 nM was found for `O=c1c2ccccc2c(Cc2nc3cc(Cl)c(OC(F)(F)F)cc3[nH]2)nn1CC1CCCCO1` (centres unmarked) [Compound 35, 4-[[6-chloro-5-(trifluoromethoxy)-1H-benzimidazol-2-yl]methyl]-2-(tetrahydropyran-2-ylmethyl)phthalazin-1-one] in this work.
An EC50 (S1PR2) of 100000 nM and an EC50 [1] of no less than 19900 nM were found for `CC1(Cn2nc(Cc3nc4cc(Cl)c(OC(F)(F)F)cc4[nH]3)c3ccccc3c2=O)COC1` [Compound 36, 4-[[6-chloro-5-(trifluoromethoxy)-1H-benzimidazol-2-yl]methyl]-2-[(3-methyloxetan-3-yl)methyl]phthalazin-1-one] in this work.
An EC50 (S1PR2) of 1210 nM and an EC50 [1] of 1280 nM were found for `CC1(C)OCC(Cn2nc(Cc3nc4cc(Cl)c(OC(F)(F)F)cc4[nH]3)c3ccccc3c2=O)O1` (centres unmarked) [Compound 38, 4-[[6-chloro-5-(trifluoromethoxy)-1H-benzimidazol-2-yl]methyl]-2-[(2,2-dimethyl-1,3-dioxolan-4-yl)methyl]phthalazin-1-one] in this work.
An EC50 (S1PR2) of 13400 nM and an EC50 [1] of no less than 19900 nM were found for `CN1CCCC(Cn2nc(Cc3nc4cc(Cl)c(OC(F)(F)F)cc4[nH]3)c3ccccc3c2=O)C1` (centres unmarked) [Compound 39, 4-[[6-chloro-5-(trifluoromethoxy)-1H-benzimidazol-2-yl]methyl]-2-[(1-methyl-3-piperidyl)methyl]phthalazin-1-one] in this work.
An EC50 [1] of 2090 nM was found for `CC(C)(C)C(=O)Cn1nc(Cc2nc3cc(Cl)c(OC(F)(F)F)cc3[nH]2)c2ccccc2c1=O` [Compound 44, 4-[[6-chloro-5-(trifluoromethoxy)-1H-benzimidazol-2-yl]methyl]-2-(3,3-dimethyl-2-oxo-butyl)phthalazin-1-one] in this work.
An EC50 [1] of 98.4 nM was found for `O=C(Cn1nc(Cc2nc3cc(OCC(F)F)c(Cl)cc3[nH]2)c2c(C3CC3)cccc2c1=O)N1CCOCC1` [Compound 48, 4-[[6-chloro-5-(2,2-difluoroethoxy)-1H-benzimidazol-2-yl]methyl]-5-cyclopropyl-2-(2-morpholino-2-oxo-ethyl)phthalazin-1-one] in this work.
An EC50 [1] of 2360 nM was found for `N#Cc1cc2[nH]c(Cc3nn(CC(=O)N4CCOCC4)c(=O)c4ccccc34)nc2c(Cl)c1OCC(F)F` [Compound 53, 7-chloro-6-(2,2-difluoroethoxy)-2-[[3-(2-morpholino-2-oxo-ethyl)-4-oxo-phthalazin-1-yl]methyl]-3H-benzimidazole-5-carbonitrile] in this work.
An EC50 (S1PR2) of 4570 nM and an EC50 [1] of 1460 nM were found for `O=c1c2ccccc2c(Cc2nc3cc(Cl)c(OC(F)(F)F)cc3[nH]2)nn1CC1CCCN1` (centres unmarked) [Compound 55, 4-[[6-chloro-5-(trifluoromethoxy)-1H-benzimidazol-2-yl]methyl]-2-(pyrrolidin-2-ylmethyl)phthalazin-1-one] in this work.
An EC50 (S1PR2) of 1100 nM and an EC50 [1] of 890 nM were found for `O=c1c2ccccc2c(Cc2nc3cc(Cl)c(OC(F)(F)F)cc3[nH]2)nn1CC1CCCNC1` (centres unmarked) [Compound 58, 4-[[6-chloro-5-(trifluoromethoxy)-1H-benzimidazol-2-yl]methyl]-2-(3-piperidylmethyl)phthalazin-1-one] in this work.
An EC50 (S1PR2) of 1270 nM and an EC50 [1] of 4160 nM were found for `O=c1c2ccccc2c(Cc2nc3cc(Cl)c(OC(F)(F)F)cc3[nH]2)nn1CC1CNCCO1` (centres unmarked) [Compound 63, 4-[[5-chloro-6-(trifluoromethoxy)-1H-benzimidazol-2-yl]methyl]-2-(morpholin-2-ylmethyl)phthalazin-1-one] in this work.
An EC50 (S1PR2) of 57.1 nM and an EC50 [1] of 18.9 nM were found for `Cc1cccc2c(=O)n(CC(=O)N3CCOCC3)nc(Cc3nc4cc(OCC(F)F)c(C#N)cc4[nH]3)c12` [Compound 66, 6-(2,2-difluoroethoxy)-2-[[8-methyl-3-(2-morpholino-2-oxo-ethyl)-4-oxo-phthalazin-1-yl]methyl]-3H-benzimidazole-5-carbonitrile] in this work.
An EC50 [1] of 45 nM was found for `CCOc1cc2[nH]c(Cc3nn(CC(=O)O)c(=O)c4ccccc34)nc2cc1C#N` [Compound 138, 2-[4-[(5-cyano-6-ethoxy-1H-benzimidazol-2-yl)methyl]-1-oxo-phthalazin-2-yl]acetic acid] in this work.
An EC50 [1] of 388 nM was found for `N#Cc1cc2[nH]c(Cc3nn(CC(=O)N4CCN(CCO)CC4)c(=O)c4ccccc34)nc2cc1OCC(F)F` [Compound 225, 6-(2,2-difluoroethoxy)-2-[[3-[2-[4-(2-hydroxyethyl)piperazin-1-yl]-2-oxo-ethyl]-4-oxo-phthalazin-1-yl]methyl]-3H-benzimidazole-5-carbonitrile] in this work.
An EC50 (S1PR2) of 5240 nM was found for `N#Cc1cc2[nH]c(Cc3nn(CC(=O)N4CCC(N5CCOCC5)CC4)c(=O)c4ccccc34)nc2cc1OCC(F)F` [Compound 238, 6-(2,2-difluoroethoxy)-2-[[3-[2-(4-morpholino-1-piperidyl)-2-oxo-ethyl]-4-oxo-phthalazin-1-yl]methyl]-3H-benzimidazole-5-carbonitrile] in this work.
An EC50 [1] of 89.6 nM was found for `CS(=O)(=O)NC(=O)Cn1nc(Cc2nc3cc(OCC(F)F)c(F)cc3[nH]2)c2ccccc2c1=O` [Compound 248, 2-[4-[[5-(2,2-difluoroethoxy)-6-fluoro-1H-benzimidazol-2-yl]methyl]-1-oxo-phthalazin-2-yl]-N-methylsulfonyl-acetamide] in this work.
An EC50 [1] of 10.2 nM was found for `CS(=O)(=O)NC(=O)Cn1nc(Cc2nc3cc(OCC4(C#N)CC4)c(Cl)cc3[nH]2)c2ccccc2c1=O` [Compound 249, 2-[4-[[6-chloro-5-[(1-cyanocyclopropyl)methoxy]-1H-benzimidazol-2-yl]methyl]-1-oxo-phthalazin-2-yl]-N-methylsulfonyl-acetamide] in this work.
An EC50 [1] of 9.39 nM was found for `CC1(COc2cc3nc(Cc4nn(CC(=O)NS(C)(=O)=O)c(=O)c5ccccc45)[nH]c3cc2Cl)CC1` [Compound 250, 2-[4-[[6-chloro-5-[(1-methylcyclopropyl)methoxy]-1H-benzimidazol-2-yl]methyl]-1-oxo-phthalazin-2-yl]-N-methylsulfonyl-acetamide] in this work.
An EC50 [1] of no less than 19900 nM was found for `CCOc1ccc2nn(Cc3nn(CC(=O)O)c(=O)c4ccccc34)cc2c1Cl` [Compound 254, 2-[4-[(4-chloro-5-ethoxy-indazol-2-yl)methyl]-1-oxo-phthalazin-2-yl]acetic acid] in this work.
An EC50 [1] of no less than 19900 nM was found for `CCOc1ccc2cn(Cc3nn(CC(=O)O)c(=O)c4ccccc34)nc2c1Cl` [compound 22, 2-[4-[(7-chloro-6-ethoxy-indazol-2-yl)methyl]-1-oxo-phthalazin-2-yl]acetic acid] in this work.
